What was measured:
ACHN = assay: Cell growth inhibition by SRB method; format: cell-based, human; conditions: 72 hrs exposure
Excerpt: (§1) Six human cancer cell lines have been used to evaluate effects of the compounds on proliferation of cancer cells. These cell lines include HCC827-P (or HCC827 parent cells), human non-small lung cancer cells, Parent NSCLC HCC827 cell line (which harbors EGFR gene amplification, Exon 19 (E19) deletion, and Exon 21 mutation (Wang, Ramakrishnan et al. 2010), and is an EGFRi sensitive cell line (Kim, Kim et al. 2010)); HCC827-TR16 (Tarceva-resistant HCC727 cell line), HCC827-OR16 (AZD9291-resistant HCC727 cell line), LNCaP (human prostate cancer cells—a hormonal-therapy sensitive cell line (Wang, Liu et al. 1997)); 22RV1 (human prostate cancer cells—a hormonal-therapy resistant cell line (Sramkoski, Pretlow et al. 1999)); and ACHN (human renal adenocarcinoma cells (Park, Jung et al. 2003)). LNCaP cells and 22RV1 cells were purchased from the American Type Culture Collection (Rockville, Md.) and others were gifts of friends.
(§2) All cell lines were maintained in RPMI-1640 (GIBCO, Gaithersburg, Md.) with 10% heat-inactivated bovine serum (FBS) (Wang, Ossowski et al. 2004).
(§3) Sulforhodamine B (SRB) was used to estimate cell growth as described previously (Skehan, Storeng et al. 1990). Briefly, cells grown exponentially were aliquoted into 96-well plates at a density of 2,500 to 5,000 cells/200 μl per well in RPMI 1640 medium containing 10% FBS. After twenty-four hours, the cells were exposed to indicated concentrations of tested compounds for 72 hrs or otherwise as indicated. The cells were then fixed with 10% trichloride acetic acid for 2 h at 4° C. The 10% trichloride acetic acid was removed, and the dishes were washed 5 times with tape water, and air-dried. The fixed and dried cells were then stained with 0.4% SRB in 1% acetic acid for 25 min, and the dishes were washed 5 times with 1% acetic acid and air-dried overnight. 200 μl of 10 mM of Tris buffer (pH 10.0) were added, and the dishes were rotated to completely dissolve the color. Absorbance at 570 nm, with a reference wavelength 690 nm, was measured on a 96-well microplate reader (SPECTRO Star^Nano, BMG Labtech). Mean, standard deviation (SD) and the percent of growth inhibition at each concentration point of the treatment were calculated. The percent of growth inhibition as defined as (1−T/C)×100 where T is the mean of the absorbance at 570 nm from the treatment, and C from control (drug vehicle only). IC50 was calculated using Sigma-plot software by regression of growth-concentration curve from each drug treatment.

22RV1 = assay: Cell growth inhibition by SRB method; format: cell-based, human; conditions: for IC50: 72 hrs exposure, SRB; for growth inhibition of 22RV1 cells (in words): EGFR negative cell line, 72 hrs, FIG. 2 and 3
Excerpt: as §1, §2, §3

HCC827OR16 = assay: Cell growth inhibition by SRB method; format: cell-based, human; conditions: AZD9291-resistant line, 72 hrs exposure
Excerpt: as §1
(§4) To evaluate activities of new compounds on growth of EGFR-inhibitor-resistant cells, two EGFRi-resistant cell lines, i.e., HCC827-TR16 and HCC827-OR16 were established using a method described by Eberlein et al. (Eberlein, Stetson et al. 2015). […] Resistant cells were collected and stabilized after 5 weeks (cycle 5). […] The resistant cells were sorted using 96-well dishes by culturing cells with density of 0.1, 1, 10, and 100 cells per well.
as §2, §3

HCC827P = assay: Cell growth inhibition by SRB method; format: cell-based, human; conditions: for IC50: 72 hrs exposure, SRB
Excerpt: as §1, §4, §2, §3

[1] = tested on: HCC827 P and HCC827 TR cells; assay: Reno647/Carboplatin combination, median effects (SRB, CalcuSyn); format: cell-based, human
Method: As described in Example 2.1. Two cell lines, HCC827-P and HCC827-TR (Tarceva-resistant HCC727 cells-an EGFRi resistant cell line with MET amplification) (Wang, Pursell et al. 2013) were used in the combination study. Exponentially growing HC[…] and HCC827-TR cells were seeded into 96-wells dishes at density of 3,000 cells per well. Twenty-four hours later, the cells were exposed concurrently to serial dilution of Reno647 or Carboplatin or Camptothecin alone or in combination at a ratio of 1:50 with Carboplatin or at ratio 1:1 with Camptothecin for 3 days. Reno647 were concurrently and sequentially with paclitaxel (Taxol) at ratio of 200:1 for 6 days. For sequential exposure, the cells were treated with Reno647 for 3 days, after removal of the drug containing medium, the cells were treated with Taxol for additional 3 days, or the cells were treated by Taxol first followed by the treatment with Reno 647. After incubation for 6 days, the cell growth was measured by SRB as described previously in Example 2.1 section, and the percentages of inhibition (1-T/C) % were calculated, and data were analyzed by a PC program, CalcuSyn, Biosoft (edited by T.-C. Chou, Memorial Sloan-Kettering Cancer Center, New York, and M. P. Hayball, at Cambridge, UK, 1996). The computer-calculated combination index (CI) was used to judge the outcomes of a combination: […] It has long been accepted that chemotherapy provided some benefit for patients with non-small-cell lung cancer (NSCLC) in terms of quality of life and symptomatology as well as modest improvements in survival. […] Cell growth was determined by SRB as described above.

tested cancer cell lines = assay: Cell growth inhibition by SRB method, tested cancer cell lines overall; format: cell-based, human; conditions: data not provided
Excerpt: as §1, §2, §3

HCC827TR16 = assay: Cell growth inhibition by SRB method; format: cell-based; conditions: Homo sapiens, Tarceva-resistant line, 72 hrs exposure
Excerpt: as §1, §4, §2, §3

LNCaP = assay: Cell growth inhibition by SRB method; format: cell-based, human; conditions: for IC50: Homo sapiens, LNCaP, 72 hrs exposure, SRB
Excerpt: as §1, §2, §3

Compound	IC50 (HCC827TR16)	IC50 (22RV1; Homo sapiens, 22Rv1)	IC50 (HCC827OR16; Homo sapiens)	IC50 (HCC827P; Homo sapiens)	IC50 (LNCaP)	activities against all tested cancer cells lines compared with NK-2206 and MLN8237 (tested cancer cell lines)	also measured
(3-Ethynyl-phenyl)-[6-(2-methoxy-ethoxy)-7-nitro-naphthalen-1-yl]-amine [Reno635]							IC50 (ACHN): 3750 nM; IC50 (22RV1): 5000 nM; IC50 (HCC827OR16): > 5000 nM; IC50 (HCC827P): > 5000 nM
N.N.O=C([O-])C1(C(=O)[O-])CCC1.[Pt+2] [Carboplatin, reference compound]							dose reduction in combination ([1]; Reno647:Carboplatin 1:50): 2 fold; median effects, two drugs combined ([1]; Reno647:Carboplatin 1:50, concurrent, cell line not stated): 3.38 µM; median effects, drug alone ([1]; single agent, cell line not stated): 8.39 µM
O=C(c1cc(Cc2n[nH]c(=O)c3ccccc23)ccc1F)N1CCN(C(=O)C2CC2)CC1 [AZD2281, reference compound]							growth inhibition of 22RV1 cells (in words) (22RV1): significantly inhibited; growth inhibition of HCC827P cells (in words) (HCC827P; EGFR positive cell line, 72 hrs, FIG. 3): no activity
C#Cc1cccc(Nc2ncnc3cc(OCCOC)c(OCCOC)cc23)c1 [Tarceva, reference compound]	> 5000 nM	> 5000 nM	> 5000 nM	< 200 nM	> 5000 nM		growth inhibition of LNCaP cells (in words) (LNCaP; 72 hrs, FIG. 2): relatively weak response; IC50 (ACHN; Homo sapiens, ACHN): 625 nM; growth inhibition of 22RV1 cells (in words) (22RV1): relatively weak response; IC50 HCC827OR16 (HCC827OR16): almost unmeasurable

Second part, led by results:

IC50 (HCC827TR16)	IC50 (22RV1; Homo sapiens, 22Rv1)	IC50 (HCC827OR16; Homo sapiens)	IC50 (HCC827P; Homo sapiens)	IC50 (LNCaP)	Compound	activities against all tested cancer cells lines compared with NK-2206 and MLN8237 (tested cancer cell lines)	also measured
> 5000 nM	> 5000 nM	> 5000 nM	200 nM		C#Cc1cccc(Nc2ncnc3cc(OCCOC)c(NC(=O)c4ccc(Br)c([N+](=O)[O-])c4)cc23)c1 [Reno636, 4-Bromo-N-[4-(3-ethynyl-phenylamino)-7-(2-methoxy-ethoxy)-quinazolin-6-yl]-3-nitro-benzamide]	better activities	IC50 (ACHN; Homo sapiens, ACHN): > 5000 nM
> 5000 nM	2300 nM	1800 nM	200 nM	> 5000 nM	C#Cc1cccc(Nc2ncnc3cc(OCCOC)c(NC(=O)c4ccc(I)c([N+](=O)[O-])c4)cc23)c1 [Reno649, 4-Iodo-N-[4-(3-ethynyl-phenylamino)-7-(2-methoxy-ethoxy)-quinazolin-6-yl]-3-nitro-benzamide]	better activities	
> 5000 nM	> 5000 nM	> 5000 nM	150 nM	> 5000 nM	C#Cc1cccc(Nc2ncnc3cc(OCCOC)c(NC(=O)c4ccc(Cl)c([N+](=O)[O-])c4)cc23)c1 [Reno648, 4-Chloro-N-[4-(3-ethynyl-phenylamino)-7-(2-methoxy-ethoxy)-quinazolin-6-yl]-3-nitro-benzamide]	better activities	
1200 nM	650 nM	2000 nM	< 200 nM	2000 nM	C=CC(=O)Nc1cc(Nc2nccc(-c3cn(C)c4ccccc34)n2)c(OC)cc1N(C)CCN(C)C [AZD9291, reference compound]		
